Reference: patent US8911953B2, “TDF-related compounds and analogs thereof, analogs and bioactive fragments” (Thrasos Innovation, Inc., priority 2005, dated 2014)
Entries after “also recorded” stand apart in the source; their conditions may differ. Positions of bridges follow the written chain, without caps; N, C: chain ends. No end group written: not given here.

B1: BMP-7: recombinant human mature BMP-7 (BMP-7 or TDF-1), positive control therapy (protein)
chain: STGSKQRSQNRSKTPKNQEALRMANVAENSSSDQRQACKKHELYVSFRDLGWQDWIIAPEGYAAYYCEGECAFPLNSYMNATNHAIVQTLVHFINPETVPKPCCAPTQLNAISVLYFDDSSNVILKKYRNMVVRACGCH

Experiments:
STZ CD1 mice = assay: Streptozotocin (STZ)-induced diabetic nephropathy model; assay type: in vivo, mouse; details: ip 5 mg/kg/24 hr, month 5 through 6
Protocol: Reversal of interstitial fibrosis by TDFRP compounds in a CD1 mouse model of streptozotocin (STZ)-induced diabetic nephropathy. A. Schematic of the STZ experimental protocol. Mice were injected with streptozotocin at Day 0 (D0) to induce diabetes and renal injury and sacrificed at 6 months (6M). Vehicle or BMP-7 (positive control) was administered from D0 through 6 months (6M). TDFRP (SEQ ID NO:45) was administered either orally or intraperitoneally from month 5 (5M) through 6M for 30 total days.; B: Kidney section of vehicle-treated STZ animal showing significant interstitial fibrosis; C: Kidney section of STZ animal that received ip administration of TDFRP compound (SEQ ID NO:45) (5 mg/kg/24 hr).
STZ-induced Type 1 diabetes is a widely used experimental model for diabetic nephropathy. Mice given iv STZ develop a progressive loss of pancreatic beta cells culminating in diabetes and renal damage within a six month period of time. In a typical experiment, TDFRP compounds can alleviate fibrosis, reduce proteinuria and protect the kidneys from STZ damage.
The effect of TDFRP compounds on cell damage due to diabetic nephropathy is measured by the method of Wang and coworkers (Wang et al., (2003) 63(6): 2037) (FIG. 8A). Diabetes is induced in 200 g rats by a single dose of streptozotocin.

[1] = tested on: cisplatin-treated Sprague-Dawley rats; assay: Rat cisplatin model of acute kidney injury; assay type: in vivo; details: for ICAM-1 in kidney sections: anti-ICAM-1 staining; for ICAM-1 in kidney sections / proliferating cells / cellular regeneration (PCNA) / macrophages accumulating in the kidneys: b674: 2.8 mg/kg bw; for proliferating cells / cellular regeneration (PCNA): anti-PCNA staining; for macrophages accumulating in the kidneys: macrophage-specific marker
From the text: The rat cisplatin model has been studied extensively and is considered a relevant model for human acute kidney injury. Kidneys from cisplatin-treated animals show little evidence of cell proliferation. In contrast, animals that are protected or are able to recover from the nephrotoxic effects of cisplatin treatment show proliferation as detected by anti-proliferating cell nuclear antigen or PCNA antibodies. This model provides a mechanism for identifying agents that can protect the kidney from inflammatory cytokine-mediated injury, as well as, in repairing organ damage. Macrophages infiltrate the kidneys of animals treated with cisplatin and this early marker of nephropathy can be detected using anti CD-68 antibodies. Agents that decrease the number of macrophages in kidneys and prevent inflammatory cell-mediated damage associated with cisplatin treatment can be detected using immuno-histological analysis. Kidney sections treated with agents that show increased expression of α-actin in smooth muscle cells (SMC) are indicative of protecting the in integrity of SMC and alleviating injurious damage to the kidney.
Male Sprague-Dawley rats (˜250 gm) are injected ip with 5 mg/kg cisplatin (1 mg/ml in water) at time zero to induce acute renal failure. In this model, clinical signs (rise in serum creatinine) peaks at 4 to 5 days. The test compound and control substances were administered iv via the tail vein as 0.5 ml slow bolus injections. The negative control substance was the vehicle (PBS pH 7.2+5% Mannitol), while the positive control therapy was recombinant human mature BMP-7 (BMP-7 or TDF-1). The end points are serum creatinine and BUN levels and histology.
TDFRP Compound (SEQ ID NO:45) was tested in male Sprague-Dawley rats (250 gm to 300 gm) to establish the dose range and the extent to which the compound is able to prophylactically and therapeutically ameliorate the renal toxic effects of cisplatin. The cisplatin dosing level was the chemotherapeutic level used in humans, 40 ug/kg bw. The end points were the level of creatinine in serum and kidney histology. […]
A stock solution (70 mg/ml) of TDFRP (SEQ ID NO:45) was made by dissolving it in 20 mM Acetate (ph 4.2). The stock solution was further diluted into phosphate buffered saline (PBS, pH 7.2) plus 5% Mannitol to compound concentrations of 14 mg/ml (28 mg/kg dose), 1.4 mg/ml (2.8 mg/kg dose) and 0.14 mg/ml (0.28 mg/kg dose).
Cisplatin was administered via i.p. injection (40 ug/kg bw) at time zero. Administration of therapeutic dosing of the compound, the BMP-7 positive control and vehicle negative control were by slow bolus i.v. injection through the tail vein at five time points: 2 hours before the administration of cisplatin, then at 24 hours, 48 hours, 72 hours and 96 hours post cisplatin administration. Blood samples were collected through the tail vein at time points of 0, 24, 48, 72 and 96 hours. At seven day sample was collected by exsanguination at sacrifice. Serum was prepared from the blood samples and analyzed for creatinine concentration. The serum concentration of creatinine, a byproduct of muscle activity that is released into the blood stream and cleared through the kidneys, is a marker of kidney function that tends to rise when kidney function becomes severely compromised (FIG. 21).
Upon sacrifice at seven days, the kidneys were harvested, fixed in formalin and imbedded in paraffin. They were then sagitally sectioned and stained in H&E stain. Kidney sections were also stained with anti-bodies against proliferating cell nuclear antigen (PCNA) (to identify sites of cell regeneration), macrophages, I-CAM-1, and smooth muscle. Also collected at sacrifice were tissues at and around the injection site (FIGS. 22, 25, 26).

ALK-6 = ALK-6 (Homo sapiens, UniProt O00238); details: native protein; cited from earlier work
Chain of ALK-6 (O00238 14-502): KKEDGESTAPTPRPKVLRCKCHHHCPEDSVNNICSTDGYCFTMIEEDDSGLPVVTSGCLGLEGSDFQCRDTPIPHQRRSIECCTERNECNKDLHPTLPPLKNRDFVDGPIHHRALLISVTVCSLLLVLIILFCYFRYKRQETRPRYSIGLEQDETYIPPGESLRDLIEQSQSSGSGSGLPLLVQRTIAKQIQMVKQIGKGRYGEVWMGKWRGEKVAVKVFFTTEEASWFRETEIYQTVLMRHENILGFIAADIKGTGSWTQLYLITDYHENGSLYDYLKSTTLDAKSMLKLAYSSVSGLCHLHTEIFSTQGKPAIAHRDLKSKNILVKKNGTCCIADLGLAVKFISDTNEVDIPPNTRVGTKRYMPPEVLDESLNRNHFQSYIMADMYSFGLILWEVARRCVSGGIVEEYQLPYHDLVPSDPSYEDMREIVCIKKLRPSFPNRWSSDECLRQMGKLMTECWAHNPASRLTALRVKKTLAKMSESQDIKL

| Molecule | renal interstitial fibrosis (STZ CD1 mice) | tubule structure of the kidney (H&E sections) ([1]; 2.8 mg/kg b.w.) | cisplatin-induced inflammation of the kidney cortex ([1]; 2.8 mg/kg bw) | smooth muscle loss ([1]; 2.8 mg/kg bw) | serum creatinine at the highest dose ([1]; 28 mg/kg bw i.v.) | cisplatin-induced level of creatinine in serum ([1]; 0.28, 2.8 and 28 mg/kg bw i.v.) | ICAM-1 in kidney sections [1] | ICAM-1 in kidney sections ([1]; listed as SEQ ID NO 45) | proliferating cells / cellular regeneration (PCNA) [1] | proliferating cells / cellular regeneration (PCNA) ([1]; listed as SEQ ID NO 45) | macrophages accumulating in the kidneys [1] | macrophages accumulating in the kidneys ([1]; listed as SEQ ID NO 45) | nephrotoxic effects of cisplatin exposure ([1]; rat, in vivo) | renal tubular morphology (tubular atrophy, necrosis and dilation) ([1]; rat, in vivo) | peak serum creatinine levels in response to cisplatin ([1]; BMP-7 30 ug/kg bw and 200 ug/kg bw) | affinity of binding to ALK-6 (ALK-6) |
| --- | --- | --- | --- | --- | --- | --- | --- | --- | --- | --- | --- | --- | --- | --- | --- | --- |
| CYFDDSSNVLCKKYRS (disulfide 1-11 (inferred); not fully specified) [SEQ ID NO:45] | effectively reversed | improved | significantly reduced | reduced | more efficacious than the positive control; also recorded: return closer to base-line levels | reduces | reduced | less ICAM-positive material | increased the degree of cellular regeneration | Proliferating cells are observed | reduced | less macrophages | reduce or ameliorate | improved the morphology and structure of the kidney tubules |  |  |
| B1 |  |  |  |  |  |  |  |  |  |  |  |  |  | Improvement of Renal Tubular Morphology | lower peak serum creatinine levels | higher affinity |
